The values below are quoted from earlier work in PMC8537277 (Pharmaceuticals, 2021).

The target of the data set is HA receptor-binding site (RBS). The arrangement: method as in PMID 29610325. Conditions: ref [20]; cited from earlier work.

Consider `CC(=O)N[C@H]1[C@H]([C@H](O)[C@H](O)CO)OC(O)(C(=O)O)C[C@@H]1O` (stereo partly shown) [sialic acid], for which the KD result is given as “mM range”.
